The values below come from patent US10030016B2 (Sunesis Pharmaceuticals, Inc., priority 2009, dated 2018).

Counter-ions that a name gives are not always drawn. Like-named read-outs stand apart in the source and are kept apart here.

For assay [1], the system named is phospho-akt (Thr308) in PC-3 cells. Nature of the assay: Inhibition of phospho-akt (Thr308) in PC-3 cells, MSD phospho-akt 308 ELISA kit. In kind it is cell-based. The note with it: Homo sapiens, 2 hours, no serum, read-out: EC50. A digest of the protocol: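 Phospho-Akt (Thr308) levels were measured by MSD ELISA after PC-3 cells received compound for 2 hours in serum-free medium. Controls: DMSO (high), 5 μM wortmannin (low).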

Assay [2] addresses PDK1 (Homo sapiens (Human), UniProt O15530). The assay is described as follows: PDK1 kinase assay (coupled PDK1/AKT/FAM-crosstide assay, IMAP fluorescence polarization). It counts as biochemical. A digest of the protocol: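 PDK1 activity is measured indirectly through activation of a PIFtide-fused AKT2 construct that phosphorylates FAM-crosstide (100 nM). The reaction uses 0.75 nM PDK1, 40 μM ATP, 30 min, 25° C, with IMAP polarization detection.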

The mark [3] stands for this setting: inhibition of P308 Akt in PC-3 cells using MSD.
[4] abbreviates: inhibition of P308 Akt in PC-3 cells, MSD.
Where [5] appears, read: inhibition of phospo-PDK1 in vitro.

PDK1, sequence (O15530 51-359): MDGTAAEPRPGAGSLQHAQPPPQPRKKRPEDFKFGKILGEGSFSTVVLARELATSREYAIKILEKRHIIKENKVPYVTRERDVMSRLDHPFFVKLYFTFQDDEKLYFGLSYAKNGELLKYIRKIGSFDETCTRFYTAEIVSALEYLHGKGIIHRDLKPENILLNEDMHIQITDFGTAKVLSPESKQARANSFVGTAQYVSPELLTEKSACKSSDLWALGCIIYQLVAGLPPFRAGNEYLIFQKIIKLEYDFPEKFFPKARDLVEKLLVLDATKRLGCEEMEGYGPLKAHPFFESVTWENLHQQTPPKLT

As to `Nc1ncc(-c2ccc(CNc3ncc(C(F)(F)F)cc3C(=O)Nc3ccc(F)cc3)cc2)nc1O[C@@H]1CCC[C@H]1N` [Example 173, 2-{4-[5-Amino-6-((1R,2R)-2-amino-cyclopentyloxy)-pyrazin-2-yl]-benzylamino}-N-(4-fluoro-phenyl)-5-trifluoromethyl-nicotinamide], in assay [1] (setting [3]), the EC50 was < 1000 nM. The IC50 in assay [2] (inhibition of PDK1 in vitro) was < 100 nM.

In the case of `CNc1ncc2cc(C#CCNc3ncc(C#N)cc3C(=O)N[C@@H](C)c3ccc(F)cc3)ccc2n1` [Example 255, (S)-5-cyano-N-(1-(4-fluorophenyl)ethyl)-2-(3-(2-(methylamino)quinazolin-6-yl)prop-2-ynylamino)nicotinamide], in assay [1] (setting [3]), the EC50 was < 1000 nM. For the same molecule, in assay [2] (inhibition of PDK1 in vitro), the IC50 was < 100 nM.

For `CCNC(=O)c1cccnc1NCc1cccc(-c2c[nH]c3ncccc23)c1` [Example 1.11, N-ethyl-2-{[3-(1H-pyrrolo[2,3-b]pyridin-3-yl)benzyl]amino}pyridine-3-carboxamide], the 50% effective concentration (EC50) in assay [1] (setting [4]) lay in the range of 1000 to 10000 nM. Further, the IC50 in assay [2] (setting [5]) was > 5000 nM.

Take `C[C@H](NC(=O)c1cc(C#N)cnc1NCc1ccc(-c2cnc(N)c(CCCO)n2)cc1)c1ccc(F)cc1` [Example 91, 2-{4-[5-Amino-6-(3-hydroxy-propyl)-pyrazin-2-yl]-benzyl-amino}-5-cyano-N-[(S)-1-(4-fluoro-phenyl)-ethyl]-nicotinamide]: in assay [1] (setting [3]), the 50% effective concentration (EC50) was < 1000 nM. Besides, the IC50 in assay [2] (inhibition of PDK1 in vitro) is < 100 nM.

As for `O=C(NCc1ccc(F)c(F)c1)c1cccnc1NCc1ccc(-c2ccc3ncccc3c2)s1` [Example 4.5, N-(3,4-difluorobenzyl)-2-(((5-(quinolin-6-yl)thiophen-2-yl)methyl)amino)nicotinamide], the EC50 in assay [1] (setting [4]) is > 10000 nM. In addition, the half-inhibitory concentration (IC50) in assay [2] (setting [5]) was < 100 nM.

`COC(=O)c1ccc(-c2ccc(CNc3ncc(C#N)cc3C(=O)N[C@@H](C)c3ccc(F)cc3)cc2)cn1` [Example 112, (S)-methyl 5-(4-((5-cyano-3-(1-(4-fluorophenyl)ethyl-carbamoyl)pyridin-2-ylamino)methyl)phenyl)picolinate]: in assay [1] (setting [3]), the EC50 was > 10000 nM. For the same molecule, the IC50 in assay [2] (inhibition of PDK1 in vitro) was > 5000 nM.

As for `Nc1ncnc2ccc(-c3ccc(CNc4ncc(C(F)(F)F)nc4C(=O)NCc4ccc(F)c(F)c4)s3)cc12` [Example 10.10, 3-(((5-(4-aminoquinazolin-6-yl)thiophen-2-yl)methyl)amino)-N-(3,4-difluorobenzyl)-6-(trifluoromethyl)pyrazine-2-carboxamide], the concentration for a half-maximal effect (EC50) in assay [1] (setting [4]) is > 10000 nM. Further, in assay [2] (setting [5]), the IC50 was < 100 nM.

As to `Nc1ncnc2ccc(-c3ccc(CNc4nccnc4C(=O)NCc4ccc(F)cc4)s3)cc12` [Example 3.68, 3-({[5-(4-aminoquinazolin-6-yl)thiophen-2-yl]methyl}amino)-N-(4-fluorobenzyl) pyrazine-2-carboxamide (TFA salt)], the concentration giving a half-maximal response (EC50) in assay [1] (setting [4]) was 1000 to 10000 nM. The IC50 in assay [2] (setting [5]) is < 100 nM.

Consider `O=C(NCc1ccc(F)c(F)c1)c1cccnc1NCc1nc(-c2c[nH]c3ncccc23)cs1` [Ex. 6.11, N-(3,4-difluorobenzyl)-2-({[4-(1H-pyrrolo[2,3-b]pyridin-3-yl)-1,3-thiazol-2-yl]methyl}amino) pyridine-3-carboxamide], for which the EC50 in assay [1] (setting [4]) fell in the range of 1000 to 10000 nM. Further, the concentration for half-maximal inhibition (IC50) in assay [2] (setting [5]) lay in the range of 100 to 1000 nM.

For the molecule `Cc1nc2[nH]nc(N)c2cc1-c1ccc(CNc2ncc(C#N)nc2C(=O)N[C@@H](C)c2ccc(F)c(F)c2)cc1` [Example 400, (S)-3-(4-(3-amino-6-methyl-1H-pyrazolo[3,4-b]pyridin-5-yl)benzylamino)-6-cyano-N-(1-(3,4-difluorophenyl)ethyl)pyrazine-2-carboxamide], the EC50 in assay [1] (setting [3]) lay in the range of 1000 to 10000 nM. For the same molecule, the IC50 in assay [2] (inhibition of PDK1 in vitro) was < 100 nM.

As to `C=C(C)c1cnc(NCc2ccc(-c3ccc4ncnc(N)c4c3)s2)c(C(=O)NCc2ccc(F)c(F)c2)n1` [Ex. 10.5, 3-({[5-(4-aminoquinazolin-6-yl)thiophen-2-yl]methyl}amino)-N-(3,4-difluorobenzyl)-6-(prop-1-en-2-yl)pyrazine-2-carboxamide], in assay [1] (setting [4]), the EC50 lay within 1000 to 10000 nM. For the same molecule, the concentration for half-maximal inhibition (IC50) in assay [2] (setting [5]) is < 100 nM.

Consider `C[C@H](NC(=O)c1nc(C#N)cnc1NCc1ccc(-c2cnc3[nH]nc(N)c3c2)cc1)c1ccc(F)cc1` [Example 32, (S)-3-(4-(3-amino-1H-pyrazolo[3,4-b]pyridin-5-yl)benzylamino)-6-cyano-N-(1-(4-fluorophenyl)ethyl) pyrazine-2-carboxamide], for which, in assay [1] (setting [4]), the half-maximal effective concentration (EC50) was < 1000 nM. In assay [2] (setting [5]), the IC50 is < 100 nM.

As to `N#Cc1cnc(NCc2ccc(-c3ccc4ncnc(N)c4c3)s2)c(C(=O)NCc2ccc(F)cc2)n1` [Example 3.83, 3-(((5-(4-aminoquinazolin-6-yl)thiophen-2-yl)methyl)amino)-6-cyano-N-(4-fluorobenzyl)pyrazine-2-carboxamide (TFA salt)], in assay [1] (setting [4]), the EC50 was < 1000 nM. For the same molecule, in assay [2] (setting [5]), the IC50 was < 100 nM.

Consider `CC(C)Oc1cc(CNc2ncccc2C(=O)Nc2c(F)cccc2F)cc(-c2c[nH]c3ncc(C(=O)NC4CC4)cc23)c1` [Example 4.1.12, N-cyclopropyl-3-{3-[({3-[(2,6-difluorophenyl)carbamoyl]pyridin-2-yl}amino)methyl]-5-(propan-2-yloxy)phenyl}-1H-pyrrolo[2,3-b] pyridine-5-carboxamide], for which, in assay [1] (setting [4]), the EC50 is > 10000 nM. In assay [2] (setting [5]), this molecule gave an IC50 of 1000 to 5000 nM.

With `Nc1ncnc2ccc(-c3ccc(CNc4ncsc4C(=O)NCc4ccc(F)c(F)c4)s3)cc12` [Ex. 12.1], the EC50 in assay [1] (setting [4]) is > 10000 nM. Further, the 50% inhibitory concentration (IC50) in assay [2] (setting [5]) was < 100 nM.

With `N#Cc1cnc(NCc2ccc(-c3cnc(N)cn3)cc2)c(C(=O)NCc2ccc(F)c(F)c2)c1` [Example 377, 2-(4-(5-aminopyrazin-2-yl)benzylamino)-5-cyano-N-(3,4-difluorobenzyl) nicotinamide], in assay [1] (setting [3]), the concentration giving a half-maximal response (EC50) was 1000 to 10000 nM. For the same molecule, the half-maximal inhibitory concentration (IC50) in assay [2] (inhibition of PDK1 in vitro) is < 100 nM.

`C[C@H](NC(=O)c1cc(C(F)(F)F)cnc1NCc1ccc(-c2cnc3[nH]c(=O)[nH]c3c2)cc1)c1ccc(F)c(F)c1` [Example 362, (S)-N-(1-(3,4-difluorophenyl)ethyl)-2-(4-(2-oxo-2,3-dihydro-1H-imidazo[4,5-b]pyridin-6-yl)benzylamino)-5-(trifluoromethyl)nicotinamide]: the EC50 in assay [1] (setting [3]) was < 1000 nM. The IC50 in assay [2] (inhibition of PDK1 in vitro) is < 100 nM.

As to `O=C(NCc1ccc(F)cc1)c1cccnc1NCc1ccc(-c2c[nH]c3ncccc23)s1` [Example 1.16, 2-(((5-(1H-pyrrolo[2,3-b]pyridin-3-yl)thiophen-2-yl)methyl)amino)-N-(4-fluorobenzyl)nicotinamide], in assay [1] (PC-3, 2 h, inhibition of P308 Akt in PC-3 cells, MSD), the concentration for a half-maximal effect (EC50) is > 10000 nM. The IC50 in assay [2] (setting [5]) is 100 to 1000 nM.

`CNc1ncc2cc(OCCNc3ncc(C#N)cc3C(=O)N[C@@H](C)c3ccc(F)cc3)ccc2n1` [Example 250, (S)-5-cyano-N-(1-(4-fluorophenyl)ethyl)-2-(2-(2-(methylamino)quinazolin-6-yloxy)ethylamino)nicotinamide]: the EC50 in assay [1] (setting [3]) was < 1000 nM. Besides, the IC50 in assay [2] (inhibition of PDK1 in vitro) is < 100 nM.

For `C[C@H](NC(=O)c1cc(F)cnc1NCc1ccc(-c2ccc3ncnc(N)c3c2)s1)c1ccc(F)cc1` [Example 7.3.2, (S)-2-(((5-(4-aminoquinazolin-6-yl)thiophen-2-yl)methyl)amino)-5-fluoro-N-(1-(4-fluorophenyl)ethyl) nicotinamide], the EC50 in assay [1] (setting [4]) was < 1000 nM. The IC50 in assay [2] (setting [5]) was < 100 nM.

Turning to `C[C@H](NC(=O)c1cc(C#N)cnc1NCc1ccc(-c2cnc(N)c(C(=O)NCCN(C)C)n2)cc1)c1ccc(F)cc1` [Example 212], the half-maximal effective concentration (EC50) in assay [1] (setting [3]) is < 1000 nM. For the same molecule, in assay [2] (inhibition of PDK1 in vitro), the IC50 is < 100 nM.

With `N#Cc1cnc(NCc2ccc(-c3cnc4[nH]c(=O)[nH]c4c3)cc2)c(C(=O)NCc2ccc(F)c(F)c2)n1` [Example 364, 6-cyano-N-(3,4-difluorobenzyl)-3-(4-(2-oxo-2,3-dihydro-1H-imidazo[4,5-b]pyridin-6-yl)benzylamino)pyrazine-2-carboxamide], in assay [1] (setting [3]), the concentration giving a half-maximal response (EC50) is < 1000 nM. Besides, in assay [2] (inhibition of PDK1 in vitro), the IC50 was < 100 nM.

Regarding `C[C@@H](Nc1ncc(C(F)(F)F)cc1C(=O)Nc1ccc(F)cc1)c1ccc(-c2cnc3[nH]nc(N)c3n2)cc1` [Example 412, 2-{(R)-1-[4-(3-Amino-1H-pyrazolo[3,4-b]pyrazin-5-yl)-phenyl]-ethylamino}-N-(4-fluoro-phenyl)-5-trifluoromethyl-nicotinamide], in assay [1] (setting [3]), the EC50 lay in the range of 1000 to 10000 nM. Further, the 50% inhibitory concentration (IC50) in assay [2] (inhibition of PDK1 in vitro) is < 100 nM.

As to `CCOc1ccnc(NCc2ccc(-c3ccc4ncnc(N)c4c3)s2)c1C(=O)N[C@@H](C)c1ccc(F)cc1` [Ex. 7.7, (S)-2-(((5-(4-aminoquinazolin-6-yl)thiophen-2-yl)methyl)amino)-N-(1-(4-fluoro-phenyl)ethyl)-4-ethoxynicotinamide], the half-maximal effective concentration (EC50) in assay [1] (setting [4]) was > 10000 nM. Moreover, the half-maximal inhibitory concentration (IC50) in assay [2] (setting [5]) was in the range of 100 to 1000 nM.

Turning to `Nc1ncnn2ccc(-c3ccc(CNc4ncc(C(F)(F)F)cc4C(=O)NCc4ccc(F)c(F)c4)cc3)c12` [Example 176, 2-[4-(4-Amino-pyrrolo [2,1-f][1,2,4]triazin-5-yl)-benzylamino]-N-(3,4-difluoro-benzyl)-5-trifluoromethyl-nicotinamide], the EC50 in assay [1] (setting [3]) is 1000 to 10000 nM. In addition, the half-maximal inhibitory concentration (IC50) in assay [2] (inhibition of PDK1 in vitro) is < 100 nM.

In the case of `C[C@H](NC(=O)c1nc(C#N)cnc1N[C@H](C)c1ccc(-c2cnc3[nH]nc(N)c3n2)cc1)c1ccc(F)c(F)c1` [Example 411, 3-{(R)-1-[4-(3-Amino-1H-pyrazolo[3,4-b]pyrazin-5-yl)-phenyl]-ethylamino}-6-cyano-pyrazine-2-carboxylic acid [(S)-1-(3,4-difluoro-phenyl)-ethyl]-amide], the EC50 in assay [1] (setting [3]) was < 1000 nM. Also, the IC50 in assay [2] (inhibition of PDK1 in vitro) is < 100 nM.
